Each structure is given as a SMILES string. A value given as a limit tells only on which side of the number the result lay.

The target of assay [1] is T1, Cannabinoid receptor 1 (Homo sapiens, UniProt P21554). Briefly: Agonist activity at human CB1 receptor after 4 hrs by luciferase reporter gene assay. Format: functional.
Assay [2] deals with T1, Cannabinoid receptor 1. Briefly: Agonist activity at human CB1 receptor after 4 hrs by luciferase reporter gene assay relative to control. Format: functional.
A further assay is filed under the species Homo sapiens. Briefly: Selectivity ratio of EC50 for human CB1 receptor to EC50 for human CB2 receptor.
For assay [3], the target named is T2, Cannabinoid receptor 2 (Homo sapiens, UniProt P34972). Briefly: Agonist activity at human CB2 receptor after 4 hrs by luciferase reporter gene assay. It is filed as functional. (In general: Reporter assays use an easily measured gene product as a stand-in for the process of interest.)
T2 sequence (P34972 whole entry): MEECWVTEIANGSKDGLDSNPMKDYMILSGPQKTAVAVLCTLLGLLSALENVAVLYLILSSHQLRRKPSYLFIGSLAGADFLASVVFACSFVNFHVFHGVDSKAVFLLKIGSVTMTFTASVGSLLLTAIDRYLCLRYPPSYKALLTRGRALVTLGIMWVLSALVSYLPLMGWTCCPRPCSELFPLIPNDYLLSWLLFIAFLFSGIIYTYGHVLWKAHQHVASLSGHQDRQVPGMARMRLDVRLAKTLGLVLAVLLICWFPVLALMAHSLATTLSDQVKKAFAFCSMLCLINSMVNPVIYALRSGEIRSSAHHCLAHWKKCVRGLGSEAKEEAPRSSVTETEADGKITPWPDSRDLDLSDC
Assay [4] addresses T2, Cannabinoid receptor 2. Briefly: Agonist activity at human CB2 receptor after 4 hrs by luciferase reporter gene assay relative to control. It is filed as functional.

T1 sequence (P21554 whole entry): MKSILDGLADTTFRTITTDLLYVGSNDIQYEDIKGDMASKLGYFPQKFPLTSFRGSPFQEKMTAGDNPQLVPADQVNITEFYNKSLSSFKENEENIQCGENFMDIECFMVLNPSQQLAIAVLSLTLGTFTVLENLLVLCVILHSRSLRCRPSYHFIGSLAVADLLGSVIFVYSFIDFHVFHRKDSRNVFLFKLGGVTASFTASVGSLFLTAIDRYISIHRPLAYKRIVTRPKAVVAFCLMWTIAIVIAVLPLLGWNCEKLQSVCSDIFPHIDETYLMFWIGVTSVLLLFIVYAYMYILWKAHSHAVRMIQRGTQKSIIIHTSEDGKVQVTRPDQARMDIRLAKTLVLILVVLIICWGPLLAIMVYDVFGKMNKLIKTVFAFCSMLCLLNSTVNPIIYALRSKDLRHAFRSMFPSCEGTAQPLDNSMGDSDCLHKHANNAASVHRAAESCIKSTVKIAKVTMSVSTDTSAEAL

The term EC50 denotes the concentration at which the effect is half-maximal. Read a high EC50 as a need for much substance. Regarding `CC1OCc2sc(NC(=O)CC(C)(C)C)c(C(=O)N3CC(F)(F)C3)c21` (stereo not drawn), the values for the EC50 at Cannabinoid receptor 1 [1] and on Cannabinoid receptor 2 [3] were 217 nM and 6 nM, respectively. In addition, the results for the Efficacy at Cannabinoid receptor 1 [2] and on Cannabinoid receptor 2 [4] were 94% and 105%, respectively. The Ratio EC50 in the assay filed under Homo sapiens stood at 36.
The like results for `COCCNC(=O)c1c(NC(=O)CC(C)(C)C)sc2c1C(C)(C)CC2` were, in that order, 368 nM, 5.9 nM, 98%, 100% and 62.
Turning to `O=C(Nc1sc2c(c1C(=O)N1CCOCC1)CCOC2)c1ccc(Cl)cc1Cl`, the results for the half-maximal effective concentration (EC50) at Cannabinoid receptor 1 [1] and at Cannabinoid receptor 2 [3] were > 10000 nM and 9350 nM, respectively. This molecule also registered an Efficacy on Cannabinoid receptor 2 [4] of 108%.
For `O=C(Nc1sc2c(c1C(=O)N1CCCCC1)CCOC2)c1c(F)cccc1C(F)(F)F`, the results for the EC50 on Cannabinoid receptor 1 [1] and at Cannabinoid receptor 2 [3] were 1000 nM and 14 nM, respectively. Moreover, the Efficacy on Cannabinoid receptor 1 [2] was 94%; on Cannabinoid receptor 2 [4], 103%. The Ratio EC50 in the assay filed under Homo sapiens came to 71.
Turning to `O=C(Nc1sc2c(c1C(=O)N1CCOCC1)CCOC2)c1cccc(Cl)c1`, the EC50 on Cannabinoid receptor 1 [1] is > 10000 nM; at Cannabinoid receptor 2 [3], 1420 nM. At Cannabinoid receptor 2 [4], the Efficacy came to 98%.
For the molecule `O=C(Nc1sc2c(c1C(=O)N1CCOCC1)CCOC2)c1c(F)cccc1C(F)(F)F`, the EC50 was 4540 nM at Cannabinoid receptor 1 [1] and 95 nM at Cannabinoid receptor 2 [3]. The Efficacy on Cannabinoid receptor 1 [2] turned out to be 56%; on Cannabinoid receptor 2 [4], 100%. Also, the Ratio EC50 in the assay listed under Homo sapiens came to 48.
`O=C(Nc1sc2c(c1C(=O)N1CCOCC1)CCOC2)c1ccc(Cl)cc1`: the EC50 at Cannabinoid receptor 1 [1] and on Cannabinoid receptor 2 [3] was > 10000 nM each time.
As for `CC(C)(C)CC(=O)Nc1sc2c(c1C(=O)NCC1CC1)C(C)(C)CC2`, the EC50 at Cannabinoid receptor 1 [1] was found to be 243 nM; at Cannabinoid receptor 2 [3], 6.4 nM. Moreover, the figures for the Efficacy at Cannabinoid receptor 1 [2] and on Cannabinoid receptor 2 [4] were 96% and 101%, respectively. The Ratio EC50 in the assay listed under Homo sapiens stood at 38.
As for `O=C(CN1CCCC1)Nc1sc2c(c1C(=O)N1CCC(F)(F)CC1)CCCC2`, the EC50 is > 10000 nM on Cannabinoid receptor 1 [1] and 209 nM on Cannabinoid receptor 2 [3]. Further, the Ratio EC50 in the assay filed under Homo sapiens was > 48. Also, the Efficacy at Cannabinoid receptor 2 [4] was found to be 87%.
On to `Cc1ccccc1C(=O)Nc1sc2c(c1C(=O)N1CCOCC1)CCOC2`, for which the EC50 worked out at 7450 nM on Cannabinoid receptor 1 [1] and 646 nM at Cannabinoid receptor 2 [3]. For the same molecule, the Efficacy on Cannabinoid receptor 1 [2] turned out to be 97%; on Cannabinoid receptor 2 [4] it was 105%. In addition, the Ratio EC50 in the assay filed under Homo sapiens was 12.
The like results for `O=C(Nc1sc2c(c1C(=O)N1CCC(F)(F)CC1)CCOC2)c1c(F)cccc1C(F)(F)F` were, in that order, 251 nM, 3.6 nM, 94%, 97% and 71.
Turning to `COC1CN(C(=O)c2c(NC(=O)CC(C)(C)C)sc3c2CCCC3)C1`, the results for the EC50 at Cannabinoid receptor 1 [1] and at Cannabinoid receptor 2 [3] were 3970 nM and 47 nM, respectively. Also, the values for the Efficacy on Cannabinoid receptor 1 [2] and at Cannabinoid receptor 2 [4] were 63% and 110%, respectively. Besides, the Ratio EC50 in the assay filed under Homo sapiens stood at 85.
Regarding `O=C(Nc1sc2c(c1C(=O)O)CCOC2)c1ccccc1Cl`, the EC50 at Cannabinoid receptor 1 [1] and on Cannabinoid receptor 2 [3] was > 10000 nM in each case.
As to `COCC(C)(C)NC(=O)c1c(NC(=O)c2ccccc2OC(F)(F)F)sc2c1CCOC2`, the EC50 was > 10000 nM at Cannabinoid receptor 1 [1] and 101 nM on Cannabinoid receptor 2 [3]. Also, the Ratio EC50 in the assay filed under Homo sapiens is > 100. The molecule further gave an Efficacy on Cannabinoid receptor 2 [4] of 81%.
`COCCNC(=O)c1c(NC(=O)c2ccccc2OC(F)(F)F)sc2c1CCC(F)(F)C2`: the EC50 is > 10000 nM on Cannabinoid receptor 1 [1] and 63 nM on Cannabinoid receptor 2 [3]. The Ratio EC50 in the assay filed under Homo sapiens was > 145. In addition, the Efficacy on Cannabinoid receptor 2 [4] was 96%.
Turning to `COc1ccccc1C(=O)Nc1sc2c(c1C(=O)N1CCOCC1)CCOC2`, the EC50 on Cannabinoid receptor 1 [1] and on Cannabinoid receptor 2 [3] was > 10000 nM each time.
Consider `COCC(C)(C)NC(=O)c1c(NC(=O)c2ccccc2C(F)(F)F)sc2c1CCOC2`, for which the EC50 is > 10000 nM on Cannabinoid receptor 1 [1] and 41 nM on Cannabinoid receptor 2 [3]. In the assay filed under Homo sapiens, the Ratio EC50 was > 243. This molecule also displayed an Efficacy at Cannabinoid receptor 2 [4] of 93%.
On to `O=C(Nc1sc2c(c1C(=O)N1CC(F)(F)C1)CCC(F)(F)C2)c1ccccc1Cl`, for which the EC50 at Cannabinoid receptor 1 [1] came out at 81 nM; on Cannabinoid receptor 2 [3] it was 49 nM. Moreover, the Efficacy at Cannabinoid receptor 1 [2] was found to be 95%; at Cannabinoid receptor 2 [4], 98%. For the same molecule, in the assay listed under Homo sapiens, the Ratio EC50 amounted to 2.
The like results for `CC1(C)CCc2sc(NC(=O)c3ccccc3Cl)c(C(=O)NCC3CC3)c21` were, in that order, 16 nM, 0.55 nM, 86%, 116% and 30.
Consider `O=C(Nc1sc2c(c1C(=O)N1CCOCC1)CCOC2)c1ccccc1OC(F)(F)F`, for which the EC50 on Cannabinoid receptor 1 [1] was > 10000 nM; at Cannabinoid receptor 2 [3], 103 nM. For the same molecule, the Ratio EC50 in the assay filed under Homo sapiens is > 90. The same molecule displayed an Efficacy on Cannabinoid receptor 2 [4] of 106%.
`O=C(Nc1sc2c(c1C(=O)N1CC(F)(F)C1)CCC(F)(F)C2)c1ccccc1OC(F)(F)F`: the EC50 was determined as 139 nM at Cannabinoid receptor 1 [1] and 18 nM at Cannabinoid receptor 2 [3]. Further, the Efficacy at Cannabinoid receptor 1 [2] was determined as 93%; on Cannabinoid receptor 2 [4], 99%. For the same molecule, the Ratio EC50 in the assay filed under Homo sapiens worked out at 8.
The matching figures for `COC1CN(C(=O)c2c(NC(=O)c3ccccc3OC(F)(F)F)sc3c2CCOC3)C1`: 1420 nM, 38 nM, 45%, 100% and 37.
The like results for `COCCNC(=O)c1c(NC(=O)c2ccccc2Cl)sc2c1CCC(F)(F)C2` were, in that order, 958 nM, 46 nM, 97%, 105% and 21.
Turning to `COCCNC(=O)c1c(NC(=O)c2ccccc2Cl)sc2c1CCC2`, the 50% effective concentration (EC50) at Cannabinoid receptor 1 [1] is > 10000 nM; at Cannabinoid receptor 2 [3], 137 nM. Also, the Ratio EC50 in the assay filed under Homo sapiens was > 72. Moreover, the Efficacy on Cannabinoid receptor 2 [4] came out at 52%.
The matching figures for `O=C(Nc1sc2c(c1C(=O)N1CCOCC1)CCOC2)c1cccc(OC(F)(F)F)c1`: > 10000 nM, 749 nM, > 10 and 77%.
For the molecule `O=C(Nc1sc2c(c1C(=O)N1CCC(F)(F)CC1)CCOC2)c1ccccc1C(F)(F)F`, the results for the EC50 on Cannabinoid receptor 1 [1] and at Cannabinoid receptor 2 [3] were 80 nM and 1.4 nM, respectively. Moreover, the values for the Efficacy at Cannabinoid receptor 1 [2] and at Cannabinoid receptor 2 [4] were 90% and 99%, respectively. Further, in the assay filed under Homo sapiens, the Ratio EC50 was 57.
As to `COCCNC(=O)c1c(NC(=O)CN2CCCCC2)sc2c1CCCC2`, the values for the EC50 at Cannabinoid receptor 1 [1] and on Cannabinoid receptor 2 [3] were > 10000 nM and 152 nM, respectively. Also, in the assay filed under Homo sapiens, the Ratio EC50 was > 65. Moreover, the Efficacy at Cannabinoid receptor 2 [4] was 98%.
Turning to `COCCNC(=O)c1c(NC(=O)c2ccccc2OC(F)(F)F)sc2c1CCOC2`, the EC50 is > 10000 nM at Cannabinoid receptor 1 [1] and 96 nM on Cannabinoid receptor 2 [3]. Further, the Ratio EC50 in the assay filed under Homo sapiens is > 104. For the same molecule, the Efficacy on Cannabinoid receptor 2 [4] turned out to be 100%.
Turning to `COCCNC(=O)c1c(NC(=O)C2CCCC2)sc2c1CCOC2`, the EC50 on Cannabinoid receptor 1 [1] is > 10000 nM; on Cannabinoid receptor 2 [3], 313 nM. Also, the Ratio EC50 in the assay filed under Homo sapiens is > 32. Besides, at Cannabinoid receptor 2 [4], the Efficacy amounted to 84%.
The matching figures for `COCCNC(=O)c1c(NC(=O)C2CCCN2C(=O)C2CC2)sc2c1CCCC2` (stereo not drawn): > 10000 nM, 344 nM, > 29 and 88%.
The like results for `CC(C)(C)CC(=O)Nc1sc2c(c1C(=O)N1CCC(F)(F)CC1)C(C)(C)CC2` were, in that order, > 10000 nM, 129 nM, > 77 and 96%.
The matching figures for `CC(C)(C)C(=O)c1c(NC(=O)c2ccccc2OC(F)(F)F)sc2c1CCOC2`: > 10000 nM, 939 nM, > 11 and 102%.
On to `O=C(Nc1sc2c(c1C(=O)NCC1CC1)CCC2)c1ccccc1Cl`, for which the EC50 at Cannabinoid receptor 1 [1] is > 10000 nM; at Cannabinoid receptor 2 [3], 106 nM. Moreover, in the assay listed under Homo sapiens, the Ratio EC50 is > 94. For the same molecule, the Efficacy at Cannabinoid receptor 2 [4] worked out at 76%.
Turning to `O=C(Nc1sc2c(c1C(=O)N1CCOCC1)CCOC2)c1ccccc1OC(F)F`, the EC50 was > 10000 nM at Cannabinoid receptor 1 [1] and 488 nM at Cannabinoid receptor 2 [3]. For the same molecule, the Ratio EC50 in the assay listed under Homo sapiens was > 20. Besides, the Efficacy at Cannabinoid receptor 2 [4] turned out to be 96%.
The like results for `CC(C)(C)C(=O)c1c(NC(=O)c2ccccc2C(F)(F)F)sc2c1CCOC2` were, in that order, > 10000 nM, 897 nM, > 11 and 88%.
As to `COC1CN(C(=O)c2c(NC(=O)CN3CCCCC3)sc3c2CCCC3)C1`, the EC50 is > 10000 nM at Cannabinoid receptor 1 [1] and 219 nM on Cannabinoid receptor 2 [3]. For the same molecule, the Ratio EC50 in the assay listed under Homo sapiens was > 45. The same molecule yielded an Efficacy on Cannabinoid receptor 2 [4] of 92%.
The like results for `O=C(CN1CCCCC1)Nc1sc2c(c1C(=O)N1CC(F)(F)C1)CCCC2` were, in that order, > 10000 nM, 56 nM, > 178 and 103%.
On to `COCC(C)(C)NC(=O)c1c(NC(=O)c2c(F)cccc2C(F)(F)F)sc2c1CCOC2`, for which the EC50 on Cannabinoid receptor 1 [1] is > 10000 nM; on Cannabinoid receptor 2 [3] it was 74 nM. Moreover, the Ratio EC50 in the assay listed under Homo sapiens is > 135. On Cannabinoid receptor 2 [4], this molecule registered an Efficacy of 94%.
As to `O=C(CN1CCCC1)Nc1sc2c(c1C(=O)N1CC(F)(F)C1)CCCC2`, the EC50 is > 10000 nM on Cannabinoid receptor 1 [1] and 394 nM on Cannabinoid receptor 2 [3]. Further, in the assay listed under Homo sapiens, the Ratio EC50 was > 25. The same molecule yielded an Efficacy at Cannabinoid receptor 2 [4] of 89%.
For `O=C(Nc1sc2c(c1C(=O)N1CCOCC1)CCOC2)c1ccccc1-c1ccccc1`, the EC50 at Cannabinoid receptor 1 [1] was > 10000 nM; on Cannabinoid receptor 2 [3] it was 7890 nM. Moreover, the Efficacy on Cannabinoid receptor 2 [4] came to 63%.
Regarding `COCCNC(=O)c1c(NC(=O)C2CCC2)sc2c1CCCC2`, the EC50 was > 10000 nM at Cannabinoid receptor 1 [1] and 201 nM on Cannabinoid receptor 2 [3]. Also, the Ratio EC50 in the assay listed under Homo sapiens was > 49. Also, the Efficacy on Cannabinoid receptor 2 [4] was determined as 101%.
The like results for `COCCNC(=O)c1c(NC(=O)CC(C)(C)C)sc2c1CCOC2` were, in that order, > 10000 nM, 489 nM, > 20 and 101%.

Values taken from ChEMBL document CHEMBL2203203, “Structure-activity relationships of 2-arylamido-5,7-dihydro-4H-thieno[2,3-c]pyran-3-carboxamide derivatives as cannabinoid receptor agonists and their analgesic action” (Bioorg Med Chem Lett, 2012).
